# According to ChEMBL document CHEMBL3526034 (Drug Metab Dispos, 2013):
# Assays:
# Cytochrome P450 2B6 = molecular target: T1, Cytochrome P450 2B6 (Homo sapiens, UniProt P20813); assay: Drug metabolism in supersomes expressing human recombinant CYP2B6 assessed as NADPH-fortified enzyme-mediated metabolite formation at 5 uM after 120 mins by radio HPLC analysis; format: ADME; conditions: 2 h
# T1 sequence (P20813 whole entry): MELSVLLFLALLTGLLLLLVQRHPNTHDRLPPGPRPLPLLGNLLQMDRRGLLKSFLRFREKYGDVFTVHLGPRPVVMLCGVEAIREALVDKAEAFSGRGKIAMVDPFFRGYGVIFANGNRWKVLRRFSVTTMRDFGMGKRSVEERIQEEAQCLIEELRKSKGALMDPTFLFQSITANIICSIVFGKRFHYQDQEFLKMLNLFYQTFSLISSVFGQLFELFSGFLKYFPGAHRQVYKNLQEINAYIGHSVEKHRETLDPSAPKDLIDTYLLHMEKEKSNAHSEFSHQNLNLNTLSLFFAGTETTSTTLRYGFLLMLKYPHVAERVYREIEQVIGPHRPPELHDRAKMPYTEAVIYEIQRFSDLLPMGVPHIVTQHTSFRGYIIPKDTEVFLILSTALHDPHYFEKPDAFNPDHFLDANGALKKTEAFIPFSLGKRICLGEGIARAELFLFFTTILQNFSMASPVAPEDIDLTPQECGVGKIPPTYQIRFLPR
# [1] = molecular target: UDP-glucuronosyltransferase 2B7 (Homo sapiens, UniProt P16662); assay: (§1) Drug metabolism assessed as UDPGA-fortified human recombinant UGT2B7-mediated DTG glucuronide metabolite ((2S,3S,4S,5R,6S)-6-((4R,12aS)-9-(2,4-difluorobenzylcarbamoyl)-4-methyl-6,8-dioxo-3,4,6,8,12,12a-hexahydro-2H-[1,3]oxazino[3,2-d]pyrido[1,2-a]pyrazin-7-yloxy)-3,4,5-trihydroxytetrahydro-2H-pyran-2-carboxylic acid) formation after 120 mins by radio-HPLC analysis; format: ADME; conditions: recombinant enzyme
# UDP-glucuronosyltransferase 2B7, sequence (P16662 whole entry): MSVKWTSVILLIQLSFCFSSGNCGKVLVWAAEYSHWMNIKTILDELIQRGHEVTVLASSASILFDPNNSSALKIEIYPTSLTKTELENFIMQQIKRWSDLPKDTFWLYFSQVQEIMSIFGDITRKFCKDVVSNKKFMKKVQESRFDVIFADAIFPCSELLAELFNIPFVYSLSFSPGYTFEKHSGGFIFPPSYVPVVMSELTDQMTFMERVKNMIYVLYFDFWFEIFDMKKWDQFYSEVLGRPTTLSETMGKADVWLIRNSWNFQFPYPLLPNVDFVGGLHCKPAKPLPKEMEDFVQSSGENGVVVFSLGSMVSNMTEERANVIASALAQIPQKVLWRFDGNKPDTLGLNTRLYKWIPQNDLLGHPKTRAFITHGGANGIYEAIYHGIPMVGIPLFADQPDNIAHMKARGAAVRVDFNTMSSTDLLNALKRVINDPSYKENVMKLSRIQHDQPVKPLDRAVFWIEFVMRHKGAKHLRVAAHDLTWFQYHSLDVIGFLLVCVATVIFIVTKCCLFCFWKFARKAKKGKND
# [2] = molecular target: T2, UDP-glucuronosyltransferase 1A1 (Homo sapiens, UniProt P22309); assay: Drug metabolism in UDPGA-fortified human liver microsomes assessed as intrinsic clearance for UGT1A1-mediated DTG glucuronide M2 ((2S,3S,4S,5R,6S)-6-((4R,12aS)-9-(2,4-difluorobenzylcarbamoyl)-4-methyl-6,8-dioxo-3,4,6,8,12,12a-hexahydro-2H-[1,3]oxazino[3,2-d]pyrido[1,2-a]pyrazin-7-yloxy)-3,4,5-trihydroxytetrahydro-2H-pyran-2-carboxylic acid) formation after 120 mins measured per mg of protein by radio-HPLC analysis; format: ADME
# T2 sequence (P22309 whole entry): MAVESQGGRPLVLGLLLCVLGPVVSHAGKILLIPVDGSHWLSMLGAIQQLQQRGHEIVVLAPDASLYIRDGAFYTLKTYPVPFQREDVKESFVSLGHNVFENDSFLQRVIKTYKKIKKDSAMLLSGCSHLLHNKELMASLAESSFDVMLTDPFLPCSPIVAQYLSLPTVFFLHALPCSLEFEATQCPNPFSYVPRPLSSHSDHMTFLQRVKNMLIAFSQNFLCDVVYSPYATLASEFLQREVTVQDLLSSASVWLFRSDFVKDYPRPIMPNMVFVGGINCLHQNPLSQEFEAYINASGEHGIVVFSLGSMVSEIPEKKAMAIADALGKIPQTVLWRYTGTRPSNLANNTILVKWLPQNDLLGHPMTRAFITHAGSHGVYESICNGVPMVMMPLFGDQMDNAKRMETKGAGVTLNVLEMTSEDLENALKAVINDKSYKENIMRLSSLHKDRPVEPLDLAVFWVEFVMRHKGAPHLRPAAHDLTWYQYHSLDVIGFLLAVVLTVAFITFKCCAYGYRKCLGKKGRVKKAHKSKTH
# [3] = Protein binding in plasma (unknown origin); format: ADME, cell-free; conditions: read-out: PPB
# Cytochrome P450 2C19 = Cytochrome P450 2C19 (Homo sapiens, UniProt P33261); assay: Inhibition of CYP2C19 in human liver microsomes using S-mephenytoin as substrate preincubated for 20 mins with substrate prior to initiation of reaction with NADPH by HPLC analysis; format: ADME
# Cytochrome P450 2C19, sequence (P33261 whole entry): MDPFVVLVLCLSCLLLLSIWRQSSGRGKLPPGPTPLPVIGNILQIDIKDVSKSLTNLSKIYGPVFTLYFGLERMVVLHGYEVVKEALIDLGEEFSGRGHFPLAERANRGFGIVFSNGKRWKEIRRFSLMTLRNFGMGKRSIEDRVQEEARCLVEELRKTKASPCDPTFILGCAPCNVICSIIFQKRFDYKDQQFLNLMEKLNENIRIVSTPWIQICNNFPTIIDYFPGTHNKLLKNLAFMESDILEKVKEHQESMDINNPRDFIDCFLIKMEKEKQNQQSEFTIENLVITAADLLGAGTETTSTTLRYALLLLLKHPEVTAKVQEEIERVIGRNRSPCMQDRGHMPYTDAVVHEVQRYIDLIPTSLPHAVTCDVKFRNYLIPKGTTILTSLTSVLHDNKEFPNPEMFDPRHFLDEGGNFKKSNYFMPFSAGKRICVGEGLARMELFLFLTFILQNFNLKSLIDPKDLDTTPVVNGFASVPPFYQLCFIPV
# Cytochrome P450 2D6 [4] = molecular target: T3, Cytochrome P450 2D6 (Homo sapiens, UniProt P10635); assay: Inhibition of CYP2D6 in human liver microsomes using bufuralol as substrate preincubated for 20 mins with substrate prior to initiation of reaction with NADPH by HPLC analysis; format: ADME
# T3 sequence (P10635 whole entry): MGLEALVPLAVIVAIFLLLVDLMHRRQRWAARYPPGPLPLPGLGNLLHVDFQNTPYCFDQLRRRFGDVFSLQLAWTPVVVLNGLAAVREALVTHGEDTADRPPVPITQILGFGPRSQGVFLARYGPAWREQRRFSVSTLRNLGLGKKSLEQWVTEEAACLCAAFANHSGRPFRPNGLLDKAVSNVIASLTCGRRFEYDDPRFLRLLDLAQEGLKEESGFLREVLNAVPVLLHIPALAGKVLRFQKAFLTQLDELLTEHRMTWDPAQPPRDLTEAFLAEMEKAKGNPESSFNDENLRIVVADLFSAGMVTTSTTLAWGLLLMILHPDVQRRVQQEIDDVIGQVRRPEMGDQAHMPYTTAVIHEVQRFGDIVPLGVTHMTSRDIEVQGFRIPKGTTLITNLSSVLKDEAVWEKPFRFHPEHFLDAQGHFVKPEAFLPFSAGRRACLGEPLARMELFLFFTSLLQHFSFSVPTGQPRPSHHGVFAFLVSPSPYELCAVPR
# Cytochrome P450 2D6 [5] = molecular target: T3, Cytochrome P450 2D6; assay: Drug metabolism in supersomes expressing human recombinant CYP2D6 assessed as NADPH-fortified enzyme-mediated metabolite formation at 5 uM after 120 mins by radio HPLC analysis; format: ADME; conditions: 2 h
# MDR1 (P-gp, ABCB1) = MDR1 (P-gp, ABCB1) (Homo sapiens, UniProt P08183); assay: Activity at human MDR1 expressed in MDCK2 cells assessed as apical to basolateral mass balance at 3 uM by liquid scintillation counting analysis; format: ADME, cell-based, MDCK-II; conditions: MDCK-MDR1, read-out: Activity
# MDR1 (P-gp, ABCB1), sequence (P08183 whole entry): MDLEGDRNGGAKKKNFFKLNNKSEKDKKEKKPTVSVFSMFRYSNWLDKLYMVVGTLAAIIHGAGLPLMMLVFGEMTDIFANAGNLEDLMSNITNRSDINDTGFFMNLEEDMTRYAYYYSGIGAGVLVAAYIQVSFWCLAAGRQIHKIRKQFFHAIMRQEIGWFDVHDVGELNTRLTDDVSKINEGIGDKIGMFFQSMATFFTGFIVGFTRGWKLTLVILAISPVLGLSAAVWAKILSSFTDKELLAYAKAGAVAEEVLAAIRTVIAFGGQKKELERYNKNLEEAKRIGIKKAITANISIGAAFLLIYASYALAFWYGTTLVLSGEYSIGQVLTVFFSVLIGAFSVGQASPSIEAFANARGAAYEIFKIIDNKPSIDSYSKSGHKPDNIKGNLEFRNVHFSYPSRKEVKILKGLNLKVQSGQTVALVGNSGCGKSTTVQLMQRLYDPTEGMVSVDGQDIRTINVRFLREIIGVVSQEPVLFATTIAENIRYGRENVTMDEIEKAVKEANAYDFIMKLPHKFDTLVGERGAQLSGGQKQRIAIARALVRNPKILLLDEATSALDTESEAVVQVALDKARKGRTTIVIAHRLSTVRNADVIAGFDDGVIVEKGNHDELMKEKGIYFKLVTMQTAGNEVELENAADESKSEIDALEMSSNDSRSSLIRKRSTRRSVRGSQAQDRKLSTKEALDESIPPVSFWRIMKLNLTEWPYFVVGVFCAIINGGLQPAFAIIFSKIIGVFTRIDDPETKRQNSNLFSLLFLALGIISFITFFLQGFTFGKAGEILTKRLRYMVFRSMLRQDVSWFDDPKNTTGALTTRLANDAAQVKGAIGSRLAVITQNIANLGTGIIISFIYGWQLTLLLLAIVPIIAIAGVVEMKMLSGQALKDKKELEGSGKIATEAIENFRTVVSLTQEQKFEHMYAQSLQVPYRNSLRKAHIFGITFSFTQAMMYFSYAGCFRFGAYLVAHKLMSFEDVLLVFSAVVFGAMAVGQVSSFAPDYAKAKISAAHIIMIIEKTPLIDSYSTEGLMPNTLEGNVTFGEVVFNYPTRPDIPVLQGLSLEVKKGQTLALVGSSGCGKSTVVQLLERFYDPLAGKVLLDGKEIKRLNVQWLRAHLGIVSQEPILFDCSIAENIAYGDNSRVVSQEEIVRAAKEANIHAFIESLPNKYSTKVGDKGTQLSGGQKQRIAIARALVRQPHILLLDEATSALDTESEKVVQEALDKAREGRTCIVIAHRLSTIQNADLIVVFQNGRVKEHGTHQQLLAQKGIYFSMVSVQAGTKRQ
# [6] = molecular target: UDP-glucuronosyltransferase 1A6 (Homo sapiens, UniProt P19224); assay: as §1, with “UGT1A6-mediated” for “UGT2B7-mediated”, “formation at 16 uM” for “formation”; format: ADME; conditions: recombinant enzyme
# UDP-glucuronosyltransferase 1A6, sequence (P19224 whole entry): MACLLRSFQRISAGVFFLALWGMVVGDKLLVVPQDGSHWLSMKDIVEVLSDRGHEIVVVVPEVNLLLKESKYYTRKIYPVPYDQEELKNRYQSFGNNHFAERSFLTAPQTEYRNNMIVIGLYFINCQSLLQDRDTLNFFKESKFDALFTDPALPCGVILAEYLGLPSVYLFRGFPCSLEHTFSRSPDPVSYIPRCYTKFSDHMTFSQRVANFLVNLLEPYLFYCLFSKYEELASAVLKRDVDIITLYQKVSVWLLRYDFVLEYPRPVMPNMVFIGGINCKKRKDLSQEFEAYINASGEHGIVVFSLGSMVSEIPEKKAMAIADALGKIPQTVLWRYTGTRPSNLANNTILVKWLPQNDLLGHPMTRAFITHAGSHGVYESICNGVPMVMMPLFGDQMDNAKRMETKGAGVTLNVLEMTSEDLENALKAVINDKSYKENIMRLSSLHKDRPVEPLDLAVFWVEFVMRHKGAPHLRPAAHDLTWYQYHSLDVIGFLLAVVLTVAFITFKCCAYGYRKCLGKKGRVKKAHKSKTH
# [7] = as §1, with “metabolism in human hepatocytes” for “metabolism”, “as” for “as UDPGA-fortified human recombinant UGT2B7-mediated”, “formation at 50 uM” for “formation”, “4 to 20 hrs” for “120 mins”; format: ADME, cell-based, Hepatocyte
# [8] = molecular target: Solute carrier family 22 member 2 (Homo sapiens, UniProt O15244); assay: Inhibition of human OCT2 expressed in MDCK2 cells using [14C]metformin as substrate at 25 uM by liquid scintillation counting analysis; format: ADME, cell-based; conditions: mdck-ii
# Solute carrier family 22 member 2, sequence (O15244 whole entry): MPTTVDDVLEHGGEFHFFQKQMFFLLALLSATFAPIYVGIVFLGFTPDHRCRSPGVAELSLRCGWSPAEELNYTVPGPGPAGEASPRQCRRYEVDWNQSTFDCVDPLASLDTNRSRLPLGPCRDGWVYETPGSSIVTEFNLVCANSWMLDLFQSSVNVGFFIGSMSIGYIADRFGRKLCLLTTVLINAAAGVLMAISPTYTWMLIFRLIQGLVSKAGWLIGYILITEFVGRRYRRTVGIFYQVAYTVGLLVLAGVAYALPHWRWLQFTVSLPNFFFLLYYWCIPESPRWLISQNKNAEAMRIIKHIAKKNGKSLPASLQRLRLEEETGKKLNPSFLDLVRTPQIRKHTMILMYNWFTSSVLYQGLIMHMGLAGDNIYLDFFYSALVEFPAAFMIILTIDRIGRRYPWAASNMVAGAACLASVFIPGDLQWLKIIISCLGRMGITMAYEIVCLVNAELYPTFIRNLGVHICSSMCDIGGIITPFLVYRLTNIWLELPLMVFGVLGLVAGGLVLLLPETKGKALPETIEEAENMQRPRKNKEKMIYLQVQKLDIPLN
# Cytochrome P450 2C8 = molecular target: T4, Cytochrome P450 2C8 (Homo sapiens, UniProt P10632); assay: Metabolism-dependent inhibition of CYP2C8 in human liver microsomes using rosiglitazone as substrate preincubated for 20 mins with NADPH prior to initiation of reaction with probe substrate by HPLC analysis; format: ADME
# T4 sequence (P10632 whole entry): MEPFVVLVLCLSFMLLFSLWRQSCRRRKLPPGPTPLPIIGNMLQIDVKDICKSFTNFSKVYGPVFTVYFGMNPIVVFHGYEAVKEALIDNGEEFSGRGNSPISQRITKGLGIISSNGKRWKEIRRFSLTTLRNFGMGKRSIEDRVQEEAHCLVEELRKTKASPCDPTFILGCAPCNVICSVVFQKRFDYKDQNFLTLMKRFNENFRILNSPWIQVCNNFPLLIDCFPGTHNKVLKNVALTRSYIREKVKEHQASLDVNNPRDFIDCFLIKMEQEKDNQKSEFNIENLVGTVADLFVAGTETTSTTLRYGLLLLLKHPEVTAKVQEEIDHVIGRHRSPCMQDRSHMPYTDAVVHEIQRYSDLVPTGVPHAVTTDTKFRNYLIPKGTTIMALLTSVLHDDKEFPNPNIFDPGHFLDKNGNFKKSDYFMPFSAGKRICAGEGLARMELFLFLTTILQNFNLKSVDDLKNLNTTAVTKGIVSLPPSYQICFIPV
smiles,measurement,setting,value
C[C@@H]1CCO[C@H]2Cn3cc(C(=O)NCc4ccc(F)cc4F)c(=O)c(O)c3C(=O)N12 [DOLUTEGRAVIR],Drug metabolism,Cytochrome P450 2B6,metabolite_not_detected
same,Drug metabolism,[1],metabolite_not_detected
same,CLH,[2],2.7 µL/min/g
same,fraction unbound,[3],< 0.01
same,IC50,Cytochrome P450 2C19,> 100 µM
same,IC50,Cytochrome P450 2D6 [4],> 100 µM
same,Drug metabolism,Cytochrome P450 2D6 [5],metabolite_not_detected
same,recovery at 3 µM,"MDR1 (P-gp, ABCB1)",84%
same,Drug metabolism,[6],metabolite_not_detected
same,Drug metabolism,[7],metabolite_detected
same,inhibition (INH),[8],91%
same,IC50,Cytochrome P450 2C8,> 100 µM
